Experimental data reported in PMC5488875 (Anticancer research, 2017).

How the values were obtained:
MDA-MB-231 cells [1] = tested on: MDA-MB-231 cells
MDA-MB-231 cells [2] = test: ROS assay; assay type: cell-based
[3] = tested on: HT-29 colon cancer cell line; test: ROS assay; assay type: cell-based; details: HT-29, 100 μM (highest concentration)
[4] = tested on: HeLa cervical cancer cell line; test: ROS assay; assay type: cell-based; details: 100 μM (highest concentration)

acetylwortmannolone [Compound 1] was tested, and the EC50 (MDA-MB-231 cells [1]) was 8.93 µM and the “ROS (reactive oxygen species fold increase)” value (MDA-MB-231 cells [2]; MDA-MB-231 cells, concentration not given) was 1.58 fold increase.
With `COC[C@H]1OC(=O)c2coc3c2[C@@]1(C)C1=C(C3=O)[C@@H]2CCC(=O)[C@@]2(C)C[C@H]1OC(C)=O` [wortmannin] the ROS inducing effect (MDA-MB-231 cells [2]; MDA-MB-231 breast cancer cells) was “potent ROS inducing agent”, the “difference in concentration to exhibit the same ROS effect in the other two cancer cell lines” value (MDA-MB-231 cells [2]; MDA-MB-231 vs HeLa and HT-29) was 1000 x and the ROS inducing effect [3] was “Strong ROS inducing effect”. The ROS inducing effect [4] was “Strong ROS inducing effect”.
